The results in this text go back to patent US20130324526A1, “[1,2,4] TRIAZOLO [4,3-B] PYRIDAZINE COMPOUNDS AS INHIBITORS OF THE C-MET TYROSINE KINASE” (NOVARTIS AG, priority 2011, published 2013).

The target in one test is T1, human platelet PDE3 (Homo sapiens, UniProt Q14432).
T1 construct: Human platelet PDE3 (partially purified from human platelets); from tissue; host or cells: human platelets
In words: hPDE3 assay ([3H]cAMP scintillation proximity assay). In kind it is biochemical. Conditions: human platelet PDE3, [3H]cAMP SPA, 30 min at room temperature. In general terms: SPA uses beads or plates that emit light when radiolabelled molecules are held near them.

Another test relates to GTL16 cells. In words: GTL16 cell viability assay (CellTiter Glo). In kind it is cell-based. Conditions: Homo sapiens, GTL 16, GTL16 gastric cancer cells, 24 hours, triplicates, read-out: GTL-16 Proliferation IC50. Here is the method: GTL16 cell line is derived from a gastric cancer patient. GTL16 expresses high level of c-Met receptor tyrosine kinase due to the gene amplification.
GTL16 cells were seeded in DMEM medium with 10% FBS and 1% Pene. & Strep. at 5000 cells/well/90 μL in 96 well plate and incubated overnight for attachment at 37° C. in 5% CO2 incubator. 10-fold serials dilutions of compounds were added to the cell as 10 μL/well. The final assay volume was 100 μl/well. The assay plates were incubated at 37° C. in 5% CO2 incubator for 24 hours. […] Briefly, the plates were cooled at room temperature for 10 mins and 100 μl of CellTiter Glo reagent was added into each well. Plates were shaken for 10 mins. The chemiluminescent light unit was read in Envision from Perkin Elmer. All the tests were run at triplicates. The IC50 was calculated using Spotfire software.

The target in test [1] is c-MET receptor tyrosine kinase, GST-c-MET(969-1390) (Homo sapiens, UniProt P08581). Kind of test: EPK c-MET profiling assay (LanthaScreen TR-FRET kinase assay). In kind it is biochemical. To be noted: 2 μM ATP, 0.3 nM enzyme, 60 minutes at room temperature; end point measurement, repeats can be about two times higher or lower; read-out: c-Met Biochem IC50. Here is the method: The exemplified compounds of the present invention were assayed in an antibody based kinase phosphorylation assay as follows.
Sequence of c-MET receptor tyrosine kinase, GST-c-MET(969-1390) (P08581 969-1390): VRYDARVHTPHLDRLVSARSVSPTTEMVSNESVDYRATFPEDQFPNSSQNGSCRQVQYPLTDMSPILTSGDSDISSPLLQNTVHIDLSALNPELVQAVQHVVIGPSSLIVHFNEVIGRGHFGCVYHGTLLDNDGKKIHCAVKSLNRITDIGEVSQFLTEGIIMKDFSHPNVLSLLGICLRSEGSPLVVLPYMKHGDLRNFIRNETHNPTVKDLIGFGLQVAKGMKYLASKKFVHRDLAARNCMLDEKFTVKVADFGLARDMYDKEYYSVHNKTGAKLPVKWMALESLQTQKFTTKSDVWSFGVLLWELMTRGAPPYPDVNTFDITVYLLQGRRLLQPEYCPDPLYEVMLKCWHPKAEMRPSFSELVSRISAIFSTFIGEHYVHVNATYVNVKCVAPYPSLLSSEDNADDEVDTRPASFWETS
EPK c-MET Profiling Assay:
The EPK kinase assay for c-MET receptor tyrosine kinase was developed, using the purified recombinant GST-fusion protein, containing the cytoplasmic domain of the enzyme. GST-c-MET(969-1390) was purified by affinity chromatography.
The kinase assay is based on the LanthaScreen™ technology. LanthaScreen™ is the detection of Time-Resolved Fluorescence Resonance Energy Transfer (TR-FRET) using lanthanide chelates to measure interactions between various binding partners. In a TR-FRET kinase assay, a long-lifetime lanthanide donor species is conjugated to an antibody that specifically binds to a phosphorylated product of a kinase reaction that is labeled with a suitable acceptor fluorophore. This antibody-mediated interaction brings the lanthanide donor and the acceptor into proximity such that resonance energy transfer can take place, resulting in a detectable increase in the FRET signal.
The kinase reactions were performed in 384 well microtiter plates in a total reaction volume of 10.05 μL. The assay plates were prepared with 0.05 μL per well of test compound in the appropriate test concentration, as described under “preparation of compound dilutions”. The reactions were started by combining 5 μL of ATP solution with 5 μL of enzyme-substrate mix (consisting of kinase and substrate). The final concentrations in the kinase reactions were 25 mM Tris/HCl, 1 mM DTT, 0.025% Tween20, 10 μM sodium orthovanadate, 0.25% BSA, 0.5% DMSO, 10 mM MgCl2, 3 mM MnCl2, 2 μM ATP, 50 nM Fluorescein-PolyEAY, and 0.3 nM enzyme. The reactions were incubated for 60 minutes at room temperature and stopped by adding 5 μL of stop buffer (50 mM EDTA, 0.04% NP40, 20 mM Tris/HCl). Subsequently 5 μL of detection mix (50 mM Tris/HCl, 2 mM DTT, 0.05% Tween20, 20 μM sodium orthovanadate, 1% BSA, 1 nM Tb-PY20 antibody) were added to the stopped reactions. After 45 minutes incubation in dark at room temperature, the plates were measured in a Perkinelmer Envision fluorescence reader. The effect of compound on the enzymatic activity was in all assays obtained from the linear progress curves and normally determined from one reading (end point measurement).
These endpoint results should therefore only be seen as an indicator for the activity range, since repeated measurements can result in about two times higher or lower values.
On the technique in general: In TR-FRET formats the signal depends on donor and acceptor labels being close together.

Structures are written as SMILES.

T1 sequence (Q14432 whole entry): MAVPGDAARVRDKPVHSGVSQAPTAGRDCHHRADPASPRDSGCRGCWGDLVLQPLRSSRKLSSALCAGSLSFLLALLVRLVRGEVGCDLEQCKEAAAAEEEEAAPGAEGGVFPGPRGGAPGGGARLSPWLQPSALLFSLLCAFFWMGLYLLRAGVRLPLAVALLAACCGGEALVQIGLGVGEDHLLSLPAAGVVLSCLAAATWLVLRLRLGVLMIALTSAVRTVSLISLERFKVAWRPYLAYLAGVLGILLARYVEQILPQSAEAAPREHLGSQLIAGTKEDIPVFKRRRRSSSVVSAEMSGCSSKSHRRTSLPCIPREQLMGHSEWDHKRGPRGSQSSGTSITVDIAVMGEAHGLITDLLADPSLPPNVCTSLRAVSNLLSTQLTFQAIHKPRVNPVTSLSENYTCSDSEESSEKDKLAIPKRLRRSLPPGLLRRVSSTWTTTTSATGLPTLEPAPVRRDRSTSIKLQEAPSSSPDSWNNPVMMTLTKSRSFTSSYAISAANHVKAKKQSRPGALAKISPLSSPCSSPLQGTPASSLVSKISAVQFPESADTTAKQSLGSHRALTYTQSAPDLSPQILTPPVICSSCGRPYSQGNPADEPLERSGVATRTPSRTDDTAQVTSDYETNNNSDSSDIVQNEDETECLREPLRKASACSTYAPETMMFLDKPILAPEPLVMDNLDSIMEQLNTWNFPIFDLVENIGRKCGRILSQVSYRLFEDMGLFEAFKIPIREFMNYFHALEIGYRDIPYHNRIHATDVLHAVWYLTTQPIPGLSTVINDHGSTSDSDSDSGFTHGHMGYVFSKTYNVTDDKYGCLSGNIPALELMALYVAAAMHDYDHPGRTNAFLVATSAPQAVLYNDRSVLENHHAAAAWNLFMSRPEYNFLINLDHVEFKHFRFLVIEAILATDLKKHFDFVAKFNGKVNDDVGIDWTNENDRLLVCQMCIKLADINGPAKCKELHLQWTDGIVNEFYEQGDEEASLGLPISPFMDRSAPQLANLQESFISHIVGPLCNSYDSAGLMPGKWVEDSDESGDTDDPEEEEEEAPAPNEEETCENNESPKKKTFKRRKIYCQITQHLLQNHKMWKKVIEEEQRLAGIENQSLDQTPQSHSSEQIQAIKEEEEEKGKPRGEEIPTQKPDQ

With `C/C(=N\O)c1ccc2nnc([C@H](C)c3c(F)cc4ncc(C(C)(C)O)cc4c3F)n2n1` [24-(R)], the figures for the IC50 (at human platelet PDE3; in the test on GTL16 cells; in test [1]) were 6 µM, 0.126 µM and 0.146 µM, respectively.

With `C/C(=N\O)c1ccc2nnc([C@@H](C)c3c(F)cc4ncc(C(C)(C)O)cc4c3F)n2n1` [24-(S)], the IC50 worked out at 8 µM against human platelet PDE3, 0.08 µM in the test on GTL16 cells and 0.005 µM in test [1].

As to `C/C(=N\O)c1ccc2nnc(C(C)c3ccc4ncc(-c5cnn(C)c5)cc4c3)n2n1` (centres unmarked) [Example 1, (E)-1-(3-{1-[3-(1-Methyl-1H-pyrazol-4-yl)quinolin-6-yl]-ethyl}-[1,2,4]triazolo[4,3-b]pyridazin-6-yl)-ethanone oxime], the IC50 in the test with GTL16 cells was determined as 0.009 µM; in test [1], 0.005 µM.

As to `CCO/N=C(\C)c1ccc2nnc(C(C)c3ccc4ncc(-c5cnn(C)c5)cc4c3)n2n1` (centres unmarked) [Example 2, (E)-1-(3-{1-[3-(1-Methyl-1H-pyrazol-4-yl)quinolin-6-yl]-ethyl}-[1,2,4]triazolo[4,3-b]pyridazin-6-yl)-ethanone O-ethyl-oxime], the IC50 in the test on GTL16 cells turned out to be 0.002 µM; in test [1] it was 0.006 µM.

For `CO/N=C(\C)c1ccc2nnc([C@H](C)c3ccc4ncc(-c5cnn(C)c5)cc4c3)n2n1` [Example 3-(R)], the IC50 on human platelet PDE3 worked out at 11 µM; in the test with GTL16 cells, 0.027 µM; in test [1], 0.026 µM.

With `CO/N=C(\C)c1ccc2nnc([C@@H](C)c3ccc4ncc(-c5cnn(C)c5)cc4c3)n2n1` [Example 3-(S)], the IC50 amounted to 2 µM against human platelet PDE3, 0.001 µM in the test on GTL16 cells and 0.005 µM in test [1].

As to `C/C(=N\OCC1CC1)c1ccc2nnc(C(C)c3ccc4ncc(-c5cnn(C)c5)cc4c3)n2n1` (centres unmarked) [Example 4, (E)-1-(3-{1-[3-(1-Methyl-1H-pyrazol-4-yl)quinolin-6-yl]-ethyl}-[1,2,4]triazolo[4,3-b]pyridazin-6-yl)-ethanone O-cyclopropylmethyl-oxime], the IC50 in test [1] turned out to be 0.025 µM.

For `C/C(=N\OCC1CC1)c1ccc2nnc([C@H](C)c3ccc4ncc(-c5cnn(C)c5)cc4c3)n2n1` [Example 4-(R)], the figures for the IC50 (at human platelet PDE3; in the test on GTL16 cells; in test [1]) were 10 µM, 0.099 µM and 0.144 µM, respectively.

For `C/C(=N\OCC1CC1)c1ccc2nnc([C@@H](C)c3ccc4ncc(-c5cnn(C)c5)cc4c3)n2n1` [Example 4-(S)], the figures for the IC50 (at human platelet PDE3; in the test on GTL16 cells; in test [1]) were 1.2 µM, 0.009 µM and 0.023 µM, respectively.

`C/C(=N\N)c1ccc2nnc(C(C)c3ccc4ncc(-c5cnn(C)c5)cc4c3)n2n1` (centres unmarked) [Example 5]: the figures for the IC50 (with GTL16 cells; in test [1]) were 0.001 µM and 0.005 µM, respectively.

Turning to `CO/N=C(\C)c1ccc2nnc(Cc3ccc4ncc(-c5cnn(C)c5)cc4c3)n2n1` [Example 6, (E)-1-{3-[3-(1-Methyl-1H-pyrazol-4-yl)quinolin-6-ylmethyl]-[1,2,4]triazolo[4,3-b]pyridazin-6-yl}-ethanone O-methyl-oxime], the IC50 was 0.0005 µM in the test with GTL16 cells and 0.004 µM in test [1].

For the molecule `C/C(=N\OCC1CC1)c1ccc2nnc(Cc3ccc4ncc(-c5cnn(C)c5)cc4c3)n2n1` [Example 7, (E)-1-{3-[3-(1-Methyl-1H-pyrazol-4-yl)quinolin-6-ylmethyl]-[1,2,4]triazolo[4,3-b]pyridazin-6-yl}-ethanone O-cyclopropylmethyl-oxime], the IC50 was determined as 0.008 µM with GTL16 cells and 0.011 µM in test [1].

`CCO/N=C(\C)c1ccc2nnc(Cc3ccc4ncc(-c5cnn(C)c5)cc4c3)n2n1` [Example 8, (E)-1-{3-[3-(1-Methyl-1H-pyrazol-4-yl)quinolin-6-ylmethyl]-[1,2,4]triazolo[4,3-b]pyridazin-6-yl}-ethanone O-ethyl-oxime]: the IC50 came to 0.0003 µM in the test with GTL16 cells and 0.003 µM in test [1].

With `C/C(=N\OCC1CC1)c1ccc2nnc(C(C)c3ccc4ncc(CN5CCOCC5)cc4c3)n2n1` (centres unmarked) [Example 9, (E)-1-{3-[1-(3-Morpholin-4-ylmethyl-quinolin-6-yl)-ethyl]-[1,2,4]triazolo[4,3-b]pyridazin-6-yl}-ethanone O-cyclopropylmethyl-oxime], the IC50 in the test on GTL16 cells came to 0.311 µM; in test [1] it was 0.086 µM.

For the molecule `C/C(=N\O)c1ccc2nnc(Sc3ccc4ncc(N5CCOCC5)cc4c3)n2n1` [Example 10, (E)-1-[3-(3-Morpholin-4-yl-quinolin-6-ylsulfanyl)-[1,2,4]triazolo[4,3-b]pyridazin-6-yl]-ethanone oxime], the values for the IC50 (with GTL16 cells; in test [1]) were 0.001 µM and 0.004 µM, respectively.

On to `C/C(=N\O)c1ccc2nnc(Cc3ccc4ncc(CN5CCN(C)CC5)cc4c3)n2n1` [Example 16, (E)-1-(3-((3-((4-Methylpiperazin-1-yl)methyl)quinolin-6-yl)methyl)-[1,2,4]triazolo[4,3-b]pyridazin-6-yl)ethanone oxime], for which the IC50 with GTL16 cells amounted to 0.491 µM; in test [1], 0.025 µM.

Take `C/C(=N\O)c1ccc2nnc(Cc3c(F)cc4ncc(CN5CCOCC5)cc4c3F)n2n1` [Example 17, (E)-1-(3-((5,7-Difluoro-3-(morpholin-4-yl-methyl)quinolin-6-yl)methyl)-[1,2,4]triazolo[4,3-b]pyridazin-6-yl)ethanone oxime]: the IC50 came out at 0.01 µM with GTL16 cells and 0.003 µM in test [1].

On to `C/C(=N\O)c1ccc2nnc(Cc3ccc4ncc(CN5CCCCC5)cc4c3)n2n1` [Example 18, (E)-1-(3-((3-(Piperidin-1-ylmethyl)quinolin-6-yl)methyl)-[1,2,4]triazolo[4,3-b]pyridazin-6-yl)ethanone oxime], for which the IC50 turned out to be 0.317 µM with GTL16 cells and 0.207 µM in test [1].

As to `C/C(=N\O)c1ccc2nnc(Cc3ccc4ncc(N5C[C@@H]6C[C@H]5CN6C)cc4c3)n2n1` [Example 19, (E)-1-(3-((3-((1S,4S)-5-Methyl-2,5-diazabicyclo[2.2.1]heptan-2-yl)quinolin-6-yl)methyl)-[1,2,4]triazolo[4,3-b]pyridazin-6-yl)ethanone oxime], the IC50 with GTL16 cells was 0.012 µM; in test [1], 0.005 µM.

As to `C/C(=N\O)c1ccc2nnc(Cc3ccc4ncc(N5CCC(O)CC5)cc4c3)n2n1` [Example 20, (E)-1-(3-((3-(4-Hydroxypiperidin-1-yl)quinolin-6-yl)methyl)-[1,2,4]triazolo[4,3-b]pyridazin-6-yl)ethanone oxime], the results for the IC50 (with GTL16 cells; in test [1]) were 0.017 µM and 0.004 µM, respectively.

With `C/C(=N\O)c1ccc2nnc(Cc3c(F)cc4ncc(-c5c(C)noc5C)cc4c3F)n2n1` [Example 23, (E)-1-(3-((3-(3,5-Dimethylisoxazol-4-yl)-5,7-difluoroquinolin-6-yl)methyl)-[1,2,4]triazolo[4,3-b]pyridazin-6-yl)ethanone oxime], the IC50 came out at 0.011 µM in the test with GTL16 cells and 0.008 µM in test [1].

As for `C/C(=N\O)c1ccc2nnc(C3(c4ccc5ncc(N6CCN(C)CC6)cc5c4)CC3)n2n1` [Example 27], the IC50 with GTL16 cells is 0.24 µM; in test [1], 0.031 µM.

As for `C/C(=N\O)c1ccc2nnc(Sc3ccc4ncc(N5CCC(N(C)C)C5)cc4c3)n2n1` (centres unmarked) [Example 33, (E)-1-(3-((3-(3-(dimethylamino)pyrrolidin-1-yl)quinolin-6-yl)sulfanyl)-[1,2,4]triazolo[4,3-b]pyridazin-6-yl)ethanone oxime], the IC50 was determined as 0.001 µM in the test on GTL16 cells and 0.0009 µM in test [1].

For the molecule `C/C(=N\O)c1ccc2nnc(Cc3ccc4ncc(NC5CCOCC5)cc4c3)n2n1` [Example 34, (E)-1-{3-[3-(Tetrahydro-pyran-4-ylamino)-quinolin-6-ylmethyl]-[1,2,4]triazolo[4,3-b]pyridazin-6-yl}-ethanone oxime], the values for the IC50 (in the test with GTL16 cells; in test [1]) were 0.01 µM and 0.002 µM, respectively.
